In patent US11116757B2 (priority 2015, dated 2021):
Read-outs that look alike come from different tables or passages of the source.

Target: DCN1-UBC12 interaction (Homo sapiens (Human), UniProt Q96GG9)
Experiment: biochemical
Assay type: binding
[1] = Table 4, commercial compounds, read-out: TR-FRET IC50
[2] = Table 6, commercial compounds, read-out: TR-FRET IC50
[3] = Table 7, commercial compounds, read-out: TR-FRET IC50

DCN1-UBC12 interaction, sequence (Q96GG9 60-248 limits assumed): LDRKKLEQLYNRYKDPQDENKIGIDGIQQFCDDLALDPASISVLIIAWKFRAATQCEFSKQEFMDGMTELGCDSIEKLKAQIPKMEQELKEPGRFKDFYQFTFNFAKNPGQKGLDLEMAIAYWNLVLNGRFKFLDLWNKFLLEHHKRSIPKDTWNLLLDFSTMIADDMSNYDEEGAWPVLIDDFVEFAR

Compound | IC50 (read-out: TR-FRET IC50) [µM] | further results
COc1ccc(C(=O)N2CCC(C(=O)Nc3cccc(C)c3C)CC2)cc1 [C19] |  | IC50 [1]: > 67.6 µM
COc1ccc(CN(C(=O)Nc2ccccc2C(F)(F)F)C2CCN(C(C)=O)CC2)cc1 [B85] | > 67.6 | 
CCCC1CCC(N(Cc2ccccc2)C(=O)Nc2cccc(C(F)(F)F)c2)CC1 (stereo not shown) [A232] | > 38.7 | 
CCN(CC)C(=O)c1cnn(-c2nccc(-c3cccs3)n2)c1C [E25] |  | IC50 [2]: 63 µM
O=C(Nc1ccc(F)c(Cl)c1)C1CCN(C(=O)c2ccc(Cl)cc2)CC1 [C66] |  | IC50 [1]: > 75.6 µM
COc1ccc(C(=O)NC2C(=O)Nc3c(c(C)nn3C)C2c2ccc(Cl)c(Cl)c2)cc1OC (stereo not shown) [F30] |  | IC50 [3]: > 67.6 µM
1-Benzyl-1-(1-(Pentan-2-yl)Piperidin-4-yl)-3-(3-(Trifluoromethyl)Phenyl)Urea [A293] | > 78.2 | 
CCCC(C)N1CCC(N(Cc2ccccc2)C(=O)Nc2ccc(O)c(Cl)c2)CC1 (stereo not shown) [A300] | > 85.8 | 
O=C(Nc1cccc(-n2cccc2)c1)NC1CCN(Cc2ccccc2)CC1 [A282, 1-(3-(1H-Pyrrol-1-yl)Phenyl)-3-(1-Benzylpiperidin-4-yl)Urea] | > 71.3 | 
CC(c1ccc(Cl)cc1)N1CCC(N(Cc2ccccc2)C(=O)Nc2cc(F)cc(C(F)(F)F)c2)CC1 (stereo not shown) [A216] | > 23.8 | 
Cc1cc(NC(=O)NC2CCN(Cc3ccccc3)CC2)c(C(F)(F)F)o1 [B119] | > 79 | 
CC(Cc1cccc(C(F)(F)F)c1)NC1CCN(Cc2ccccc2)CC1 (stereo not shown) [B38] | > 61.3 | 
COc1ccc(C(=O)NC2CCN(C(=O)c3ccc(OC)cc3)CC2)cc1 [C71] |  | IC50 [1]: > 92.2 µM
CCCN1CCC(NC(=O)Nc2ccc(Cl)cc2Cl)CC1 [B14] | 43 | 
O=C(Nc1cccc(C(F)(F)F)c1)NC1CCN(Cc2ccc(F)cc2)CC1 [A172, 1-(1-(4-Fluorobenzyl)Piperidin-4-yl)-3-(3-(Trifluoromethyl)Phenyl)Urea] | 12.9 | 
O=C(Nc1cccc(C(F)(F)F)c1)N(Cc1ccccc1)C1CC2CCC(C1)N2Cc1ccccc1 (stereo not shown) [A105] | 1.87 | 
CCOc1ccccc1N1CCN(C(=O)c2cnn(-c3nccc(-c4ccco4)n3)c2C)CC1 [E10] |  | IC50 [2]: 25 µM
O=C(Nc1ccc(C(=O)N2CCCC2)cc1)Nc1cccc(C(F)(F)F)c1 [B112] | > 73.5 | 
C#CCCCN1CCC(N(Cc2ccccc2NC(=O)C=C)C(=O)Nc2ccc(Cl)c(Cl)c2)CC1 [A304] | > 9.74 | 
COCCN1CCN(C(=O)c2cnn(-c3ncc(C)c(-c4cccs4)n3)c2C2CC2)CC1 [E30] |  | IC50 [2]: > 67.6 µM
CCN1CCC(N(Cc2ccc(F)cc2)C(=O)Nc2ccccc2Cl)CC1 [B97] | > 67.6 | 
COc1ccc(CN(C(=O)Nc2ccccc2C)C2CCN(C(C)=O)CC2)cc1 [B84] | > 67.6 | 

Compound | IC50 (read-out: TR-FRET IC50) [µM] | further results
1-(1-((1H-Imidazol-4-yl)Methyl)Piperidin-4-yl)-1-Benzyl-3-(3-(Trifluoromethyl)Phenyl)Urea [A184] | 29 | 
CCCC(C)N1CCC(N(Cc2ccccc2)C(=O)Nc2cc(F)c(F)c(F)c2)CC1 (stereo not shown) [A59] | 0.355 | 
COc1ccc(C(=O)N2CCC(C(=O)Nc3cc(OC)ccc3OC)CC2)cc1 [C11] |  | IC50 [1]: > 48.7 µM
CSc1ccc(C2c3c(C)nn(C)c3NC(=O)C2NC(=O)c2cccc(C)c2)cc1F (stereo not shown) [F7] |  | IC50 [3]: 41.5 µM
O=C(Nc1cccnc1Cl)NC1CCN(C(=O)c2ccccc2F)CC1 [B30] | > 53.3 | 
Cc1cccc(CC(=O)NC2CCN(Cc3ccccc3)CC2)c1 [B21] | < 0.0041 | 
CCCCN(C(=O)Nc1cc(F)cc(C(F)(F)F)c1)C1CCN(C(C)CCC)CC1 (stereo not shown) [A84] | 0.917 | 
O=C(Nc1ccc(C(=O)N2CCOCC2)cc1)Nc1cccc(C(F)(F)F)c1 [B46] | > 66.3 | 
CCCC(C)N1CCC(N(Cc2ccccc2)C(=O)Nc2cc(F)c(F)cc2F)CC1 (stereo not shown) [A166] | 10.1 | 
CCCC(C)N1CCC(N(Cc2ccccc2)C(=O)Nc2cccc(F)c2)CC1 (stereo not shown) [A72] | 0.621 | 
O=C(Nc1ccc(F)c(Cl)c1)C1CCN(C(=O)c2ccc(Br)cc2)CC1 [C70] |  | IC50 [1]: > 83.8 µM
O=C(Nc1cc(F)cc(C(F)(F)F)c1)N(Cc1ccccc1)C1CCN(Cc2nc3ccccc3s2)CC1 [A222] | > 25.2 | 
O=C(Nc1cccc(C(F)(F)F)c1)C1CCN(C(=O)Cc2ccccc2)CC1 [C12] |  | IC50 [1]: > 65.9 µM
CCCCN1CCC(N(Cc2ccccc2)C(=O)Nc2cccc(Cl)c2)CC1 [A60] | 0.357 | 
Cn1nccc1-c1cccc(NC(=O)NC2CCN(Cc3ccccc3)CC2)c1 [A263, 1-(1-Benzylpiperidin-4-yl)-3-(3-(1-Methyl-1H-Pyrazol-5-yl)Phenyl)Urea] | > 64.6 | 
C=CS(=O)(=O)Nc1cccc(CN(C(=O)Nc2cccc(C(F)(F)F)c2)C2CCN(C(C)CCC)CC2)c1 (stereo not shown) [A27] | 0.165 | 
CCCN1CCC(NC(=O)Nc2cccc(Cl)c2)CC1 [B117] | > 77.1 | 
1-Benzyl-1-(1-(4-Fluorobenzyl)Piperidin-4-yl)-3-(3-(Trifluoromethyl)Phenyl)Urea [A171] | 12.7 | 
CCCC(C)N1CCC(N(Cc2ccccc2)C(=O)Nc2cccc([N+](=O)[O-])c2C)CC1 (stereo not shown) [A161] | 7.94 | 
CCCC(C)N1CCC(N(Cc2ccccc2)C(=O)Nc2ccc3c(c2)OC(F)(F)O3)CC1 (stereo not shown) [A52] | 0.281 | 
CCCC(C)N1CCC(N(Cc2ccccc2)C(=O)Nc2cccc(C(C)C)c2)CC1 (stereo not shown) [A33] |  | IC50 (TR-FRET IC50): 0.2 µM
CN1CCC(NC(=O)Nc2cccc(C(F)(F)F)c2)CC1 [B100] | > 68.1 | 

Compound | IC50 (read-out: TR-FRET IC50) [µM] | further results
C#CCCCN1CCC(N(Cc2ccccc2NC(=O)C=C)C(=O)Nc2cccc(C(F)(F)F)c2)CC1 [A119] | 0.353 | 
CC(=O)c1cccc(NC(=O)NC2CCN(Cc3ccccc3)CC2)c1 [B102] | > 70.6 | 
O=C(Nc1cccc(C(F)(F)F)c1)NC1CCN(C(=O)c2ccccc2)CC1 [A306, 1-(1-Benzoylpiperidin-4-yl)-3-(3-(Trifluoromethyl)Phenyl)Urea] | > 98.1 | 
C=CC(=O)Nc1cccc(CN(C(=O)Nc2cccc(C(F)(F)F)c2)C2CCN(C(C)CCC)CC2)c1 (stereo not shown) [drawing 840] | 0.11 | 
CN(C)c1ncncc1NC(=O)NC1CCN(Cc2ccc(F)cc2)CC1 [B109] | > 72.8 | 
C=CS(=O)(=O)NCCCN(C(=O)Nc1cccc(C(F)(F)F)c1)C1CCN(C(C)CCC)CC1 (stereo not shown) [A220] | > 24.5 | 
CCCC(C)N1CCC(N(Cc2ccccc2)C(=O)Nc2ccc(C)cc2F)CC1 (stereo not shown) [A157] | 7.11 | 
Cc1nn(C)c2c1C(c1ccc(Br)cc1)C(NC(=O)c1ccc(Cl)cc1)C(=O)N2 (stereo not shown) [F12] |  | IC50 [3]: > 67.6 µM
CCN(CCN(C)C)C(=O)c1cnn(-c2ncc(C)c(-c3cccs3)n2)c1COC [E46] |  | IC50 [2]: > 67.6 µM
O=C(c1ccc(I)cc1)N1CCCC(c2nc3ccccc3s2)C1 (stereo not shown) [D31] | > 67.6 | 
CCCC(C)N1CCC(N(Cc2ccccc2)C(=O)Nc2cc(OC)ccc2Cl)CC1 (stereo not shown) [A288] | > 72.9 | 
CCCC(C)N1CCC(N(Cc2ccccc2)C(=O)Nc2ccc(C)c(C)c2)CC1 (stereo not shown) [A31] | 0.184 | 
CCCC(C)N1CCC(N(Cc2ccccc2)C(=O)Nc2cc(C)ccc2F)CC1 (stereo not shown) [A181] | 19.8 | 
CCOc1ccccc1NC(=O)N(Cc1ccc(C)o1)C1CCN(C(C)=O)CC1 [B88] | > 67.6 | 
CCCC(C)N1CCC(N(Cc2ccccc2)C(=O)Nc2ccc(OC)cc2OC)CC1 (stereo not shown) [A196] | > 11.8 | 
CCN(CC)CCN(CC)C(=O)c1cnn(-c2nccc(-c3cccs3)n2)c1C1CC1 [E2] |  | IC50 [2]: 4.53 µM
Cn1ccc2cc(CN3CCC(N(Cc4ccccc4)C(=O)Nc4cc(F)cc(C(F)(F)F)c4)CC3)ccc21 [A205] | > 20.8 | 
C#CCCCN1CCC(N(Cc2ccccc2NC(=O)CC)C(=O)Nc2cccc(C(F)(F)F)c2)CC1 [A198] | > 12.9 | 
COc1cccc(NC(=O)C2CCN(C(=O)c3cccc(F)c3)CC2)c1 [C43] |  | IC50 [1]: > 67.6 µM
1-Benzyl-1-(1-(3,3-Dimethylbutyl)Piperidin-4-yl)-3-(3-(Trifluoromethyl)Phenyl)Urea [A298] | > 85 | 
CCCC(C)N1CCC(N(Cc2cccc(CNC(=O)CCl)c2)C(=O)Nc2cccc(C(F)(F)F)c2)CC1 (stereo not shown) [drawing 847] | < 0.01 | 
CCCCN(C(=O)Nc1ccc(Cl)c(Cl)c1)C1CCN(C(C)CCC)CC1 (stereo not shown) [A20] | 0.116 | 

Compound | IC50 (read-out: TR-FRET IC50) [µM] | further results
CCN1CCC(N(Cc2ccco2)C(=O)Nc2cc(Cl)ccc2C)CC1 [B78] | > 67.6 | 
CCCN1CCC(NC(=O)Nc2ccc(Cl)c(Cl)c2)CC1 [B56] | > 67.6 | 
Cc1cccc(C(=O)NC2C(=O)Nc3c(c(C)nn3C)C2c2ccc(C(C)C)cc2)c1 (stereo not shown) [F16] |  | IC50 [3]: > 67.6 µM
C=CC(=O)NCCCN(C(=O)Nc1cccc(C(F)(F)F)c1)C1CCN(C(C)CCC)CC1 (stereo not shown) [A134] | 3.34 | 
CCCC(C)N1CCC(N(Cc2ccccc2)C(=O)Nc2cccc(OC(C)C)c2)CC1 (stereo not shown) [A132] | 3.17 | 
O=C(Nc1ccc(Cl)c(C(F)(F)F)c1)C1CCN(C(=O)c2ccc(Br)cc2)CC1 [C29] |  | IC50 [1]: > 67.6 µM
O=C(CN1CCN(c2cccc(Cl)c2)CC1)Nc1cccc(C(F)(F)F)c1 [B31] | > 54.3 | 
Cc1ccccc1/C=C/C(=O)N1CCC(C(=O)Nc2ccc3c(c2)OCO3)CC1 [C61] |  | IC50 [1]: > 67.6 µM
CCN(CC)CCN(CC)C(=O)c1cnn(-c2ncc(C)c(-c3cccs3)n2)c1C1CC1 [E18] |  | IC50 [2]: 38.1 µM
CC(=O)N1CCN(C(=O)c2cnn(-c3nccc(-c4cccs4)n3)c2C2CC2)CC1 [E24] |  | IC50 [2]: 61.6 µM
CCCCN1CCC(C(Cc2ccccc2)C(=O)Nc2cccc(C(F)(F)F)c2)CC1 (stereo not shown) [A156] | 7.11 | 
O=C(Nc1cc(F)cc(C(F)(F)F)c1)N(Cc1ccccc1)C1CCN(Cc2cc(F)c(F)c(F)c2)CC1 [A206] | > 20.9 | 
CSc1cccc(NC(=O)C2CCN(C(=O)c3cnn(-c4ccccc4)c3-n3cccc3)CC2)c1 [C9] |  | IC50 [1]: > 76.7 µM
CCCN1CCC(N(Cc2cc(F)cc(C(F)(F)F)c2)C(=O)Nc2cccc(C(F)(F)F)c2)CC1 [A68, 1-(3-Fluoro-5-(Trifluoromethyl)Benzyl)-1-(1-Propylpiperidin-4-yl)-3-(3-(Trifluoromethyl)Phenyl)Urea] | 0.488 | 
Cc1cccc(C(=O)N2CCC(c3nc4ccccc4s3)CC2)c1 [D4] | 18 | 
CCCC(C)N1CCC(N(Cc2ccccc2)C(=O)Nc2cccc(OC)c2OC)CC1 (stereo not shown) [A250] | > 59.8 | 
COCCn1ccc(NC(=O)NC2CCN(Cc3ccccc3)CC2)n1 [B35] | > 55.9 | 
COc1ccc(CN(C(=O)Nc2ccccc2F)C2CCN(C(C)=O)CC2)cc1 [B86] | > 67.6 | 
CC(=O)N1CCC(N(Cc2ccco2)C(=O)Nc2cccc(C)c2)CC1 [B72] | > 67.6 | 
